This is an account of results in article PMC7537338, “CD47/SIRPα blocking peptide identification and synergistic effect with irradiation for cancer immunotherapy” (Journal for Immunotherapy of Cancer, 2020).

Series [1] deals with T1, human CD47/SIRPα interaction (Homo sapiens, UniProt Q08722).
T1 construct: Human or mouse CD47-IgV-Domain-hIg fusion proteins (20 nM, Sino Biological, China); purchased Sino Biological (hIg fusion); ACROBiosystems (biotinylated human CD47); host or cells: SIRPα partner: CHO cells stably expressing human SIRPα
Put plainly: Blocking assay, human CD47 protein binding to CHO cells expressing human SIRPα (flow cytometry). The conditions noted are these: for Blocking rate relative to pep-20 (%): blockade of peptides to hCD47 relative to parent pep-20, Table S4. The method, then: (§1) Human or mouse CD47-IgV-Domain-hIg fusion proteins (20 nM, Sino Biological, China), or biotinylated human CD47 protein (20 nM, ACROBiosystems, USA) was incubated with titrating concentrations of peptides or anti-human CD47 antibody (B6H12) in phosphate-buffered saline (PBS, pH 7.4) for 1 hour at 4°C. The mixture was incubated with human or mice SIRPα overexpressed Chinese hamster ovary cells for 30 min at 4°C, washed to remove unbound mixtures and phycoerythrin (PE)-conjugated goat anti-human IgG or PE-conjugated streptavidin was incubated (eBioscience, USA). Cells were then analyzed by flow cytometry (BD Biosciences, USA). The IC50 was determined from sigmoidal dose response curves illustrated by GraphPad Prism.

Series [2] deals with T2, human CD47-IgV-Domain protein (Homo sapiens, UniProt Q08722).
T2 construct: Human or mouse CD47-IgV-Domain proteins were labeled with NT-647 dye
Put plainly: MST binding assay to human CD47-IgV-Domain protein. The method, then:
(§2) Human or mouse CD47-IgV-Domain proteins were labeled with NT-647 dye following the microscale thermophoresis (MST) assay protocol, and the labeled protein used for each assay was about 50 to 200 nM. Unlabeled peptides or ligand protein solution was diluted for appropriate concentration serially in buffer (50 mM Tris, 150 mM NaCl, 10 mM MgCl2, 0.05% Tween-20, 0.5% DMSO and pH 7.5). The labeled proteins were then added to peptides or ligand protein solutions by 1∶1 (v/v). The samples were loaded into silica capillaries after incubation at room temperature for 30 min. Binding constants were determined by the MST assay according to manufacturer’s instructions with 20% or 40% light emitting diode (LED) power, 40% MST power at 25°C (Nano Temper, Monolith NT.115, Germany). Data analysis were performed by using a Nanotemper Analysis software.

For series [3], the target named is T3, mouse CD47-IgV-Domain protein (Mus musculus, UniProt Q61735).
T3 construct: Human or mouse CD47-IgV-Domain proteins were labeled with NT-647 dye
T3 sequence (Q61735 19-125 limits assumed): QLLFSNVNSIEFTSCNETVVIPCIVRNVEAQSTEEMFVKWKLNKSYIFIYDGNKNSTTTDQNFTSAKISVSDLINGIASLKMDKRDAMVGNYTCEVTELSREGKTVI
Put plainly: MST binding assay to mouse CD47-IgV-Domain protein. The following applies: figure 1B, read-out: KD, pep-20/mCD47. As to the method:
as §2

The target of series [4] is T4, mouse CD47/SIRPα interaction (Mus musculus, UniProt Q61735).
T4 construct: Human or mouse CD47-IgV-Domain-hIg fusion proteins (20 nM, Sino Biological, China); purchased Sino Biological; host or cells: SIRPα partner: CHO cells stably expressing mouse SIRPα
T4 sequence (Q61735 19-125 limits assumed): T3 sequence (Q61735 19-125 limits assumed)
Put plainly: Blocking assay, mouse CD47-IgV-Domain-hIg binding to CHO cells expressing mouse SIRPα (flow cytometry). The following applies: figure 1D, approximately. As to the method:
as §1
On the technique in general: A flow cytometer gives signals particle by particle.

Another series deals with C57BL/6 naïve mice. Put plainly: Mouse toxicity assays in normal mice. The class given is in vivo, C57BL/6 mice. The method, then:
toxicity analysis. Normal C57BL/6 mice were injected s.c. with 2 mg/kg of pep-20 or normal saline as the negative control daily from day 1 to 14 ( n = 5). On days 0 and 14, hematologic parameters were analyzed. Red blood cell count (A), hemoglobin level ( B) have no significant difference between pep-20 group and control group. (C) Representative H&E staining images of pep-20 treated. Normal C57BL/6 mice were injected s.c. with 2 mg/kg of pep-20 or normal saline as the negative control daily for 14 days (n = 5). The mouse primary organs of heart, liver, spleen, lung, kidney and thymus […]
Table S2. Organ coefficients analysis of pep-20-treated mice.
Heart Liver Spleen Lung Kidney thymus
Normal C57BL/6 mice were injected s.c. with 2 mg/kg pep-20 or normal saline as the negative control daily for 14 days (n = 5). The mice organ tissues were stripped for organ […]
Table S3. Hepatic damage analysis of pep-20-treated mice. […]
negative control daily for 14 days (n = 5). Mice serum samples were collected and hepatic damage analysis were performed for standard aspartate aminotransferase assay (AST) and alanine aminotransferase assay (ALT).
111 Mouse toxicity assays
112 Normal C57BL/6 mice were injected s.c. with 2 mg/kg peptides or normal 113 saline as the negative control daily from day 1 to 14 (n = 5). On days 0 and 14, 114 mice blood samples were collected via retro-orbital bleed. […]
116 Hematologic and blood biochemical parameters were analyzed by ADVIA 117 2120i Hematology Analyzer (Siemens, Germany). […]

Another series can be described thus: in vivo. The conditions noted are these: C57BL/6, mouse, iv, 40 mg/kg.
Series [5] in a line: Pharmacokinetic assay in vivo. The conditions noted are these: C57BL/6, mouse, plasma, iv, 40 mg/kg.
Protocol: (E, F) The pharmacokinetic analysis
of pep-20 and pep- 20-D12. The plasma concentration-time curve of pep-20 (E) and
Data are represented as means ± SEM.
Pharmacokinetic assays in vivo 140
C57BL/6 mice with weight of 18-20 g were administrated with a single 141
intravenous dose of 40 mg/kg of peptides. Blood samples were collected an d 142
centrifuged at 8000 rpm for 10 min at the indicated intervals. Plasma wa s 143
further mixed with 10% HClO4 at a ratio of 2∶1 (v/v) and centrifuged at 16,000 144
rpm for 10 min. The supernatant was analyzed by RP-HPLC. The 145 pharmacokinetic parameters of peptides were determined by 146 noncompartmental analysis (NCA) using Phoenix WinNonlin software program 147 5.2.1 (Certara, Princeton, USA). The maximum plasma concentration Cmax and 148 elimination half-life (T1/2) were calculated.
Series [6] can be described thus: Solubility as observed in the binding assay. The series is classed as physicochemical. The following applies: higher titrating concentrations for the MST binding assay could not be used. As to the method:
To assess the affinity of these candidate peptides toward human CD47, the preliminary binding assay was performed. […] In addition, due to the presence of consensus sequences, it can be hypothesized that the peptides pep-5, pep-9 and pep-19 may have higher affinities.
Table S1. Amino acid sequences and binding activity of selected peptides.
Name Peptide sequence Frequency (n/43) KD (μM)
Peptides targeting hCD47 were obtained by bio-panning, the affinity of peptides to hCD47

[7] abbreviates: preliminary binding assay, Table S1, NT-647 labeled hCD47, 50 mM Tris, 150 mM NaCl, 10 mM MgCl2, 0.05% Tween-20, 0.5% DMSO, pH 7.5, 25°C, read-out: KD.
Setting [8] is: 2 mg/kg s.c. daily over 14 days, days 0 and 14, n = 5.

Where two headings read alike, the source gives them in different places. Where a SMILES comes first, the peptide text is derived from it. Where no end group is shown, it is not given here. [ ]: non-standard residue; d: D form.

T1 sequence (Q08722 19-127 limits assumed): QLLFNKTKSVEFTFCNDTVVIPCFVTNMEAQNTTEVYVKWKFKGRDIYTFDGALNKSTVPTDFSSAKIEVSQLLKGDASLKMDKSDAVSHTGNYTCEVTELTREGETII
T2 sequence (Q08722 19-127 limits assumed): as above

Take `C[C@H](NC(=O)[C@H](CO)NC(=O)[C@H](Cc1c[nH]c2ccccc12)NC(=O)[C@@H](C)N)C(=O)N[C@H](C(=O)N[C@@H](Cc1c[nH]c2ccccc12)C(=O)N[C@@H](CO)C(=O)N[C@@H](CC(N)=O)C(=O)N[C@@H](Cc1ccc(O)cc1)C(=O)N[C@@H](Cc1c[nH]c2ccccc12)C(=O)N[C@@H](CCCNC(=N)N)C(=O)N[C@H](Cc1c[nH]cn1)C(=O)O)[C@@H](C)O` [pep-20-D2] (H-[dA]WSATWSNYWR[dH]-OH): the “Blocking rate relative to pep-20 (%)” value in series [1] is recorded as 83%.

`C[C@H](NC(=O)[C@H](CO)NC(=O)[C@H](Cc1c[nH]c2ccccc12)NC(=O)[C@@H](C)N)C(=O)N[C@H](C(=O)N[C@@H](Cc1c[nH]c2ccccc12)C(=O)N[C@@H](CO)C(=O)N[C@@H](CC(N)=O)C(=O)N[C@@H](Cc1ccc(O)cc1)C(=O)N[C@@H](Cc1c[nH]c2ccccc12)C(=O)N[C@H](CCCNC(=N)N)C(=O)N[C@H](Cc1c[nH]cn1)C(=O)O)[C@@H](C)O` [pep-20-D3] (H-[dA]WSATWSNYW[dR][dH]-OH): the “Blocking rate relative to pep-20 (%)” value in series [1] was determined as 75%.

In the case of `C[C@H](NC(=O)[C@H](CO)NC(=O)[C@H](Cc1c[nH]c2ccccc12)NC(=O)[C@@H](C)N)C(=O)N[C@H](C(=O)N[C@@H](Cc1c[nH]c2ccccc12)C(=O)N[C@@H](CO)C(=O)N[C@@H](CC(N)=O)C(=O)N[C@@H](Cc1ccc(O)cc1)C(=O)N[C@H](Cc1c[nH]c2ccccc12)C(=O)N[C@H](CCCNC(=N)N)C(=O)N[C@H](Cc1c[nH]cn1)C(=O)O)[C@@H](C)O` [pep-20-D4] (H-[dA]WSATWSNY[dW][dR][dH]-OH), the “Blocking rate relative to pep-20 (%)” value in series [1] is on record as 96%.

For ASFSSYNRGYMY [pep-15], the Kd in series [2] (setting [7]) worked out at 14.7 ± 20 µM.

Take ASYTDWWRNRLQ [pep-18]: the Kd in series [2] (setting [7]) turned out to be 161 ± 111 µM.

As for AWSATWSNYWRH [pep-20], the Kd was 2.91 ± 1.04 µM in series [2] (human CD47-IgV-Domain protein, figure 1A, read-out: KD, pep-20/hCD47); 3.19 ± 2.27 µM in series [2] (setting [7]); 3.63 ± 1.71 µM in series [3]. Further, the IC50 in series [1] (20 nM human CD47-IgV-Domain-hIg, CHO cells expressing human SIRPα, flow cytometry, figure 1C) was 24.6 µM; in series [4], about 12 µM. For the same compound, in series [1], the “Blocking rate relative to pep-20 (%)” value was 100%. In addition, in the series on C57BL/6 naïve mice (2 mg/kg s.c. daily for 14 days, n = 5, NS 0.3±0.04), the “Organ coefficient, Spleen” value is listed as 0.31±0.3. The “Organ coefficient, thymus” value with C57BL/6 naïve mice (2 mg/kg s.c. daily for 14 days, n = 5, NS 0.42±0.06) is listed as 0.36±0.07. Also, the “Organ coefficient, Heart” value with C57BL/6 naïve mice (2 mg/kg s.c. daily for 14 days, n = 5, NS 0.55±0.03) was 0.58±0.05. Also, the “Organ coefficient, Lung” value in the series on C57BL/6 naïve mice (2 mg/kg s.c. daily for 14 days, n = 5, NS 0.76±0.19) was 0.77±0.18. In the series on C57BL/6 naïve mice (2 mg/kg s.c. daily for 14 days, n = 5, NS 1.15±0.05), the “Organ coefficient, Kidney” value is 1.14±0.06. Also, the “Organ coefficient, Liver” value in the series with C57BL/6 naïve mice (2 mg/kg s.c. daily for 14 days, n = 5, NS 5.02±0.3) was 5.01±0.16. In addition, in the series with C57BL/6 naïve mice (2 mg/kg s.c. daily for 14 days, heart, liver, spleen, lung, kidney, thymus), the “Histopathology, H&E staining of major organs” value is recorded as “no abnormalities”. The Hemoglobin level entry with C57BL/6 naïve mice (setting [8]) is reported as “no significant differences”. In addition, in the series with C57BL/6 naïve mice (setting [8]), the “Red blood cell count” value is “no significant differences”. This compound gave an ALT in the series on C57BL/6 naïve mice (serum, 2 mg/kg s.c. daily for 14 days, n = 5, NS 6.79±0.92) of 7.03±0.86. Moreover, in the series on C57BL/6 naïve mice (serum, 2 mg/kg s.c. daily for 14 days, n = 5, NS 23.40±4.41), the AST is recorded as 28.41±5.08. The half-life in the series “in vivo” is 35.4 min. This compound also showed a Cmax in series [5] of 33600 ng/mL.

Take DRIPKIPGLPVL [pep-6]: in series [2] (setting [7]), the Kd amounted to 9.27 ± 15.1 µM.

Take GNKLTQLAASMM [pep-4]: the Kd in series [2] (setting [7]) stood at 5.32 µM.

For the compound GTYSNYVSHINN [pep-9], the Solubility entry in series [6] is listed as “poor solubility”.

For KLLPSLPSVSRN [pep-14], the Kd in series [2] (setting [7]) was over 500 µM.

Turning to LPHYIYETLPVR [pep-5], in series [6], the Solubility result was “poor solubility”.

As for LYAGKLERISRG [pep-16], the Kd in series [2] (setting [7]) came to 10.7 ± 8.89 µM.

Take TDLRYKEHYLYL [pep-3]: the Kd in series [2] (setting [7]) amounted to 0.67 µM.

With VSPLELADNPMY [pep-10], in series [2] (setting [7]), the Kd is 49.9 ± 54.8 µM.

In the case of VSYKEHDMLYSF [pep-19], the Solubility entry in series [6] was “poor solubility”.

Broadly, the IC50 is the concentration that gives 50% inhibition. As a reminder, the half-life is the time needed for the level to fall by half in the phase considered. A low value points to fast loss. By Cmax is commonly meant the highest concentration seen after dosing.
